According to US10392368B2, “Pyrazolo and triazolo bicyclic compounds as JAK kinase inhibitors” (THERAVANCE BIOPHARMA R&D IP, LLC, priority 2017, dated 2019):
Read-outs that look alike come from different tables or passages of the source.

Key:
JAK3 = biological target: T1, JAK3 (Homo sapiens, UniProt P52333); assay: Biochemical JAK3 kinase assay (LanthaScreen); design: GST; purchased Life Technologies; conditions: for Ki: read-out: JAK 3 (pKi) (converted)
T1 sequence (P52333 1-1124): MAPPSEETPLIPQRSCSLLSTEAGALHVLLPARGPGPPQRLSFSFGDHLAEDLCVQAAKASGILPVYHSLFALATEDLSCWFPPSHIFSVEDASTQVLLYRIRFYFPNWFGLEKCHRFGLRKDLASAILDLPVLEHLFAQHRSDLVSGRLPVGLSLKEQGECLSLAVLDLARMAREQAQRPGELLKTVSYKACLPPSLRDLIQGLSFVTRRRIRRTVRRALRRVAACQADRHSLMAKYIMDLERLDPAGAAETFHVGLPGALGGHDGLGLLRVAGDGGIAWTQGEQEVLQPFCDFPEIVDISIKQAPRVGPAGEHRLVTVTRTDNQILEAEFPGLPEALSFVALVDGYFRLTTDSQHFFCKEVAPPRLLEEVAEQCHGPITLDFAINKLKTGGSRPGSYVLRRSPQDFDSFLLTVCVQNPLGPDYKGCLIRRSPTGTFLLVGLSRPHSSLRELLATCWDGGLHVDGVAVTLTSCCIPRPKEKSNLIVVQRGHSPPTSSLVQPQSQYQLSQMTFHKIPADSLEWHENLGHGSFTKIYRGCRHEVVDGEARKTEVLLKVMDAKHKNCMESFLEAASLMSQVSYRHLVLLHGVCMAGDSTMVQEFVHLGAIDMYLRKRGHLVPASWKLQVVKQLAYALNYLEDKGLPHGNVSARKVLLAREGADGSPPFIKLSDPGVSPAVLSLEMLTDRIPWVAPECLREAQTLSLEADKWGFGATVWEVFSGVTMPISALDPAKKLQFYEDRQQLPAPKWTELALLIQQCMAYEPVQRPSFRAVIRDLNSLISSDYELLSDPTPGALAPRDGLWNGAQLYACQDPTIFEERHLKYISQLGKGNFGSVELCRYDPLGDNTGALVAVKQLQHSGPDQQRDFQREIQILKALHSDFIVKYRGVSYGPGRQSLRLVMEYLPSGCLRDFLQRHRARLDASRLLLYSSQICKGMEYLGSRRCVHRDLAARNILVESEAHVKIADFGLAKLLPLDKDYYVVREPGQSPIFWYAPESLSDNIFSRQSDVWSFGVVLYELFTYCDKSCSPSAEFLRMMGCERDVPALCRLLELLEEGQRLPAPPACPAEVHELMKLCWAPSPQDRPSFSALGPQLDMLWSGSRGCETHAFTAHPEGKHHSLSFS
Summary of the method: (§1)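 GST-tagged JAK enzyme and GFP-STAT1 peptide preincubated with compound 1 h, then ATP added; 1 h kinase reaction at ambient temperature, pH 7.5 HEPES/MgCl2 buffer, 1% DMSO. Tb-anti-pSTAT1 (pTyr701) TR-FRET, 520/495 nm ratio; IC50 from 4-parameter fit, converted to pKi via Cheng-Prusoff.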

JAK1 = biological target: T2, JAK1 (Homo sapiens, UniProt P23458); assay: Biochemical JAK1 kinase assay (LanthaScreen); conditions: for Ki: read-out: JAK 1 (pKi) (converted)
T2 construct: GST; purchased Life Technologies
T2 sequence (P23458 whole entry): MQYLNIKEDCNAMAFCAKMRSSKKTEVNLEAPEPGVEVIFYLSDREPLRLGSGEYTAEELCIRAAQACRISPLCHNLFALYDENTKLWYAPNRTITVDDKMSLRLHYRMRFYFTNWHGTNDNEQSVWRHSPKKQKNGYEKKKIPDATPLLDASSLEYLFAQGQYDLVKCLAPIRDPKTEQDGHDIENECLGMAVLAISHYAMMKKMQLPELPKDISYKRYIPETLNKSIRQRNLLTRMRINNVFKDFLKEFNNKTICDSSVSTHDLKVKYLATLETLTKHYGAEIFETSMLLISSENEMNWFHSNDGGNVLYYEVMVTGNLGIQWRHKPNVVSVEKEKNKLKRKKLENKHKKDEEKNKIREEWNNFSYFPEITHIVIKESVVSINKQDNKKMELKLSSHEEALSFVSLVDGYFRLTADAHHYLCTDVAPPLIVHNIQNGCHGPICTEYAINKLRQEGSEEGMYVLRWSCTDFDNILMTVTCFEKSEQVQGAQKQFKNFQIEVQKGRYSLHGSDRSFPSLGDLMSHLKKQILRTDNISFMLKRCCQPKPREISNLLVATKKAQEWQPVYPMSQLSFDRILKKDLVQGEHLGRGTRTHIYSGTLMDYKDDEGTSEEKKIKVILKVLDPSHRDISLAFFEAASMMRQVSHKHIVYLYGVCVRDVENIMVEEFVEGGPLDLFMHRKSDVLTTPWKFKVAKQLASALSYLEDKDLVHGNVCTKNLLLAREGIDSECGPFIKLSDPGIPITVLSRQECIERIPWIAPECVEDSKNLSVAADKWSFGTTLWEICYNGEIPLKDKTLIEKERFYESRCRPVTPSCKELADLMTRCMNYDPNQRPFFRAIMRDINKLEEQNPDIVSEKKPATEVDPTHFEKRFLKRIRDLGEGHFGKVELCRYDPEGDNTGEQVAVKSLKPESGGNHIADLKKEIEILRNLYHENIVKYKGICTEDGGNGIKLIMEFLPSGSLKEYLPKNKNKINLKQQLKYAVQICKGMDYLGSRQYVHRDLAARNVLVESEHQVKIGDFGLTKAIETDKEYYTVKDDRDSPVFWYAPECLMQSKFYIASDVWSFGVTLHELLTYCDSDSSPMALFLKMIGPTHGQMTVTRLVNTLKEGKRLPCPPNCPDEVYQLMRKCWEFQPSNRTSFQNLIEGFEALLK
Summary of the method: as §1

[1] = tested on: IL-2 stimulated pSTAT5 in Tall-1 T cells; assay: Cellular JAK3 potency assay: inhibition of IL-2 stimulated pSTAT5 in Tall-1 T cells; assay type: cell-based, human; conditions: for IC50: Homo sapiens, read-out: Tall-1 (pIC50) (converted)
Summary of the method: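 In human Tall-1 T cells, IL-2 (300 ng/ml final, 30 min) drives STAT5 phosphorylation after a 1 h compound pretreatment. Lysates are assayed for pSTAT5 by AlphaLisa, and IC50 derived from signal versus concentration is expressed as pIC50.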

[2] = selectivity JAK3 over JAK1, difference of pKi
[3] = TALL-1, IL-2 stimulated pSTAT5, Tall-1 T cells
[4] = IL-2 stimulated pSTAT5, Tall-1 T cells
[5] = selectivity: difference of pKi JAK3 and pKi JAK1
[6] = TALL-1, IL-2 stimulated pSTAT5 in Tall-1 T cells
[7] = IL-2 stimulated pSTAT5 in Tall-1 T cells

| Structure (SMILES) | Ki (JAK3) [nM] | JAK3 (pKi)-JAK1 (pKi) (JAK3; [2]) | Ki (JAK1) [nM] | IC50 [1, 3] [nM] | JAK 3 (pKi) (JAK3) | JAK 1 (pKi) (JAK1) | Tall-1 (pIC50) [1, 4] | JAK3 (pKi)-JAK1 (pKi) (JAK3; [5]) | IC50 [1, 6] [nM] | Tall-1 (pIC50) [1, 7] |
| --- | --- | --- | --- | --- | --- | --- | --- | --- | --- | --- |
| CN(C)C/C=C/C(=O)N1CCC(Cc2cc(-c3ccc(O)cc3)cc3[nH]ncc23)CC1 [Compound 12-14] | 0.1 to 1 | C (a value of 1.8 to 2.3) | > 100 | 200 to 1000 | – | – | – | – | – | – |
| C=CC(=O)N1CCC(COc2cc(-c3ccc(O)c(F)c3)cc3[nH]ncc23)CC1 [Compound 14-5] | – | B (a value of 2.3 to 3) | – | – | B (a pKi value between 9 and 10 (Ki between 1 nM and 0.1 nM)) | D (a pKi value between 7 and 8 (Ki between 100 nM and 10 nM)) | A (a pIC50 value≥7.5 (IC50≤32 nM)) | – | – | – |
| C=CC(=O)N1CC(Oc2cc(-c3ccc(O)cc3)cc3[nH]ncc23)(C(F)(F)F)C1 [Compound 5-26] | – | B (a value of 2.3 to 3) | – | – | B (a pKi value between 9 and 10 (Ki between 1 nM and 0.1 nM)) | E (a pKi value of 7 or below (Ki of 100 nM or above)) | C (a pIC50 value between 6 and 6.7 (IC50 between 1 μM and 200 nM)) | – | – | – |
| C=CC(=O)N1CC[C@H](Oc2nc(-c3ccc(O)cc3)nc3[nH]ncc23)C1 [Compound 1-6] | 0.1 to 1 | – | > 100 | – | – | – | – | A (a value of 3 or above) | 200 to 1000 | – |
| C=CC(=O)N1CC(F)(COc2cc(-c3ccc(O)cc3)cc3[nH]ncc23)C1 [Compound 3-6] | < 0.1 | – | 10 to 100 | – | – | – | – | A (a value of 3 or above) | < 31.6 | – |
| C=CC(=O)N1CCC(Nc2cc(-c3ccc(O)cc3)cc3[nH]ncc23)C(F)(F)C1 (centres unmarked) [Compound 7-6] | – | B (a value of 2.3 to 3) | – | – | A (a pKi value≥10 (Ki≤0.1 nM)) | D (a pKi value between 7 and 8 (Ki between 100 nM and 10 nM)) | A (a pIC50 value≥7.5 (IC50≤32 nM)) | – | – | – |
| C=CC(=O)N1CC(C(C)(C)Oc2cc(-c3ccc(O)c(Cl)c3)cc3[nH]ncc23)C1 [Compound 3-26] | – | – | – | – | B (a pKi value between 9 and 10 (Ki between 1 nM and 0.1 nM)) | E (a pKi value of 7 or below (Ki of 100 nM or above)) | – | A (a value of 3 or above) | – | B (a pIC50 value between 6.7 (included) and 7.5 (IC50 between 200 nM and 32 nM)) |
| C=CC(=O)N1CCC[C@H](S(=O)(=O)c2cc(-c3ccc(O)cc3)cc3[nH]ncc23)C1 [Compound 12-9] | 0.1 to 1 | A (a value of 3 or above) | > 100 | 200 to 1000 | – | – | – | – | – | – |
| C=CC(=O)N1CC[C@H](Oc2cc(-c3ccc(O)c(F)c3F)cc3[nH]ncc23)C1 [Compound 1-13] | 0.1 to 1 | – | > 100 | – | – | – | – | B (a value of 2.3 to 3) | 31.6 to 200 | – |
| CN(C)C/C=C/C(=O)N1CC[C@H](Oc2cc(-c3ccc(O)c(F)c3)cc3[nH]ncc23)C1 [Compound 1-4] | 0.1 to 1 | – | > 100 | – | – | – | – | A (a value of 3 or above) | 200 to 1000 | – |
| C[C@@H]1C[C@H](Oc2cc(-c3ccc(O)cc3)cc3[nH]ncc23)CN1C(=O)/C=C/CN(C)C [Compound 1-10] | 0.1 to 1 | – | > 100 | – | – | – | – | A (a value of 3 or above) | 200 to 1000 | – |
| C=CC(=O)N1C2CCC1CC(Oc1nc(-c3ccc(O)cc3)cc3[nH]ncc13)C2 (centres unmarked) [Compound 9-6] | – | A (a value of 3 or above) | – | – | B (a pKi value between 9 and 10 (Ki between 1 nM and 0.1 nM)) | E (a pKi value of 7 or below (Ki of 100 nM or above)) | A (a pIC50 value≥7.5 (IC50≤32 nM)) | – | – | – |
| C=CC(=O)N1CC(OCc2cc(-c3ccc(O)cc3)nc3[nH]ncc23)C1 [Compound 16-4] | – | A (a value of 3 or above) | – | – | B (a pKi value between 9 and 10 (Ki between 1 nM and 0.1 nM)) | E (a pKi value of 7 or below (Ki of 100 nM or above)) | B (a pIC50 value between 6.7 (included) and 7.5 (IC50 between 200 nM and 32 nM)) | – | – | – |
| C=CC(=O)N1CCC(Oc2nc(-c3ccc(O)c(F)c3)nc3[nH]ncc23)CC1 [Compound 6-23] | 0.1 to 1 | A (a value of 3 or above) | > 100 | 200 to 1000 | – | – | – | – | – | – |
| C=CC(=O)N1CC2(CCC2Oc2nc(-c3ccc(O)c(Cl)c3)nc3[nH]ncc23)C1 (centres unmarked) [Compound 13-17] | – | A (a value of 3 or above) | – | – | A (a pKi value≥10 (Ki≤0.1 nM)) | E (a pKi value of 7 or below (Ki of 100 nM or above)) | B (a pIC50 value between 6.7 (included) and 7.5 (IC50 between 200 nM and 32 nM)) | – | – | – |
| C=CC(=O)N1CC2(CCC2Oc2nc(-c3ccc(O)c(F)c3)nc3[nH]ncc23)C1 (centres unmarked) [Compound 13-18] | – | A (a value of 3 or above) | – | – | B (a pKi value between 9 and 10 (Ki between 1 nM and 0.1 nM)) | E (a pKi value of 7 or below (Ki of 100 nM or above)) | B (a pIC50 value between 6.7 (included) and 7.5 (IC50 between 200 nM and 32 nM)) | – | – | – |
| CN(C)C/C=C/C(=O)N1CC(Oc2cc(-c3ccc(O)cc3)cc3[nH]ncc23)C1 [Compound 5-1] | – | – | – | – | B (a pKi value between 9 and 10 (Ki between 1 nM and 0.1 nM)) | E (a pKi value of 7 or below (Ki of 100 nM or above)) | – | A (a value of 3 or above) | – | C (a pIC50 value between 6 and 6.7 (IC50 between 1 μM and 200 nM)) |
| CN(C)C/C=C/C(=O)N1CC[C@H](Oc2nc(-c3ccc(O)c(F)c3)cc3[nH]ncc23)C1 [Compound 1-28] | 0.1 to 1 | – | > 100 | – | – | – | – | B (a value of 2.3 to 3) | 200 to 1000 | – |
| C=CC(=O)N1CC[C@H](Oc2cc(-c3ccc(O)cc3)cc3[nH]nc(N(C)C)c23)C1 [Compound 1-42] | 0.1 to 1 | – | > 100 | – | – | – | – | A (a value of 3 or above) | 200 to 1000 | – |
| CN(C)C/C=C/C(=O)N1CC[C@H](COc2nc(-c3ccc(O)c(Cl)c3)cc3[nH]ncc23)C1 [Compound 2-9] | – | – | – | – | B (a pKi value between 9 and 10 (Ki between 1 nM and 0.1 nM)) | E (a pKi value of 7 or below (Ki of 100 nM or above)) | – | B (a value of 2.3 to 3) | – | B (a pIC50 value between 6.7 (included) and 7.5 (IC50 between 200 nM and 32 nM)) |
